The results in this text go back to patent publication EP0880966A1, “THIAMINE DISULFIDES AND MEDICINES CONTAINING THE SAME AS THE ACTIVE INGREDIENT” (NISSUI PHARMACEUTICAL CO., LTD., priority 1996, dated 1998).

The subject of this assay is CEM/LAV-1. The note with it: for TCID50/ml / Inhibition rate (%): CEM/LAV-1 cells cultured 96 hours; for TCID50/ml: titer by 72-hour culture on MT-4 cells, control 4 x 10^5; for Inhibition rate (%): versus control without agent. The protocol: A test agent was added at predetermined concentrations to cells (2 x 10^5 cells/ml, 10 ml) persistently infected with HIV in a logarithmic growth phase to culture the cells for 96 hours. The number of viable cells and the number of killed cells were counted every 24 hours by a trypan blue dye exclusion test to determine the cytotoxic effect of the test agent on the cells. A viral infectious titer (TCID50/ml) in each of the culture solutions incubated for 96 hours was determined by 72-hour culture using, as an index, the giant cell formation of MT-4 cells. In a control group, the cells were cultured in a medium free of any agent. An anti-HIV activity (inhibition %) was determined in accordance with the following equation: Anti-HIV activity (inhibition %) =(TC)/(TC)x 100 [formula]

The structures appear in SMILES notation. Where two headings read alike, the source gives them in different places.

As for `CCCCCCCCCCCCCC(=O)OCC/C(SS/C(CCOC(=O)CCCCCCCCCCCCC)=C(/C)N(C=O)Cc1cnc(C)nc1N)=C(\C)N(C=O)Cc1cnc(C)nc1N` [compound (1), thiamine disulfide dimyristate], the inhibitory effect (CEM/LAV-1 cells, concentration of from 50 to 125 µm) is on record as roughly 100%. Further, where the note is “Invention compound 50 µM”, the TCID50/ml was 8 x 10^2 TCID50/ml and the “Inhibition rate (%)” value is given as 99.5%. Under “Invention compound 125 µM”, the TCID50/ml is given as 8 x 10^2 TCID50/ml and the “Inhibition rate (%)” value stood at 99.5%.
